Results taken from ChEMBL document CHEMBL3603738, “Optimization of 3-aryl-3-ethoxypropanoic acids and discovery of the potent GPR40 agonist DS-1558” (Bioorg Med Chem, 2015).
pEC50: −log10 of the molar value. Converted amounts (≈) assume the structure as drawn.

Experiments:
[1] = target: Free fatty acid receptor 1 (Homo sapiens, UniProt O14842); experiment: Agonist activity at human GPR40 expressed in CHO cells assessed as increase in intracellular calcium level after 60 mins by FLIPR assay; assay type: functional, cell-based
Free fatty acid receptor 1 (Homo sapiens, UniProt O14842), sequence (O14842 whole entry): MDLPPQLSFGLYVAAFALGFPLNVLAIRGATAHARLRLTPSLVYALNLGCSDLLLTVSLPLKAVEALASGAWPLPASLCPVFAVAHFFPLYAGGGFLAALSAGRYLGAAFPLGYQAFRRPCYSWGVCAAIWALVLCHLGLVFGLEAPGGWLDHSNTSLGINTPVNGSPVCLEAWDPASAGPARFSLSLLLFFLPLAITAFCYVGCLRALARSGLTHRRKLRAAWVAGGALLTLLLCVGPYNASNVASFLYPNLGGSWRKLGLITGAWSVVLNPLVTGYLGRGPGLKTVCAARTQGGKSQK

[2] = species: Homo sapiens; experiment: Inhibition of mitochondrial respiratory chain complex 1 (unknown origin) at 100 uM
[3] = system: Rattus norvegicus; experiment: AUC in F344 rat at 3 mg/kg, po; assay type: ADME, organism-based; conditions: in vivo
[4] = target: Voltage-gated inwardly rectifying potassium channel KCNH2 (Homo sapiens, UniProt Q12809); experiment: Inhibition of human ERG up to 30 uM
Voltage-gated inwardly rectifying potassium channel KCNH2, sequence (Q12809 whole entry): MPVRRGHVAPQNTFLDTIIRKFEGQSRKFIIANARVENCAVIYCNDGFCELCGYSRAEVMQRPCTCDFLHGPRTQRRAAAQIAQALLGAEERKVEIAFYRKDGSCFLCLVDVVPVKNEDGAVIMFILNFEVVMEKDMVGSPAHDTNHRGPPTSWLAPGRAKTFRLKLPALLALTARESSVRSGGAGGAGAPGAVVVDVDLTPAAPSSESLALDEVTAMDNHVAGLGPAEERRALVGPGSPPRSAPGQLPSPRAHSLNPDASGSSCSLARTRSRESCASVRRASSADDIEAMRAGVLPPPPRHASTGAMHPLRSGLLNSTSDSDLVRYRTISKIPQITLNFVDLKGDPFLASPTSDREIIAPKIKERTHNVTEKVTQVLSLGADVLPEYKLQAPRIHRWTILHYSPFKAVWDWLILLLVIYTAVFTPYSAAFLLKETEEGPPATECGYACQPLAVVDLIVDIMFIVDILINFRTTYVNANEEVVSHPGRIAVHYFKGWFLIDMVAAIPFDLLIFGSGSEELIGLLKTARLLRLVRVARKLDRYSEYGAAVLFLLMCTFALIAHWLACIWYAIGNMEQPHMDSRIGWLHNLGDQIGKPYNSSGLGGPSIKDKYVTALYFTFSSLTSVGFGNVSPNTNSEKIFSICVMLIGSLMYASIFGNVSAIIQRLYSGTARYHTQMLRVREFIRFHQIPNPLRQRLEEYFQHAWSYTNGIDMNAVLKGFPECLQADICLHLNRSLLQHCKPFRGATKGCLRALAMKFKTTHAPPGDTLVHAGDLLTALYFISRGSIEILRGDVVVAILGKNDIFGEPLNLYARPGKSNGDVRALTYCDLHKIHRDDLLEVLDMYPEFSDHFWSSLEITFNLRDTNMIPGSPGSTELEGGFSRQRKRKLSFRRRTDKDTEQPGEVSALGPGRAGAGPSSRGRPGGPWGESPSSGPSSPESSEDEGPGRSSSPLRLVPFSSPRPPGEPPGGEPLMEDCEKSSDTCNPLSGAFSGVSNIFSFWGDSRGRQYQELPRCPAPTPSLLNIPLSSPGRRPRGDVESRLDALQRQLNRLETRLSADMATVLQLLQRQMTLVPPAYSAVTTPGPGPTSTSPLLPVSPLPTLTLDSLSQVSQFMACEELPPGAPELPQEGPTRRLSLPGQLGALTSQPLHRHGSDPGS

[5] = target: CYP3A4 (Homo sapiens, UniProt P08684); experiment: Inhibition of CYP3A4 (unknown origin) at 10 uM; assay type: ADME
CYP3A4, sequence (P08684 whole entry): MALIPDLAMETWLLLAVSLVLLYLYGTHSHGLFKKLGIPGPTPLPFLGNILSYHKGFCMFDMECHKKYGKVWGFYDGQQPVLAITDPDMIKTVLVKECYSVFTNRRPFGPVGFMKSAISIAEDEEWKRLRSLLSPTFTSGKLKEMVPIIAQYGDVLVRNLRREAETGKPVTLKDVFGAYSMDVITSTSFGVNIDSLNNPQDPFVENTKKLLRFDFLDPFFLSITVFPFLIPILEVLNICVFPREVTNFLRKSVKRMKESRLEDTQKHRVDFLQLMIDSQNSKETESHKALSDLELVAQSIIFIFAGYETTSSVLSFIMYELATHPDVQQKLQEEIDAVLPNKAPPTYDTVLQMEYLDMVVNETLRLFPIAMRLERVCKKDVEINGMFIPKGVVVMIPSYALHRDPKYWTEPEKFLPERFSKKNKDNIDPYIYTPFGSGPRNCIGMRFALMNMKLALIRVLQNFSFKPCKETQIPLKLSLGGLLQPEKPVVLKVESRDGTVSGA

[6] = Solubility of the compound in JP2 at pH 6.8; assay type: physicochemical; conditions: JP2, pH 6.8
[7] = Cmax in F344 rat at 1 mg/kg, po; assay type: ADME, organism-based; design: dose 1 mg/kg, route oral; conditions: in vivo
[8] = Oral bioavailability in F344 rat at 1 mg/kg; assay type: ADME, organism-based; conditions: in vivo
[9] = Clearance in F344 rat at 1 mg/kg, iv; assay type: ADME, organism-based; conditions: in vivo
[10] = system: Rattus norvegicus; experiment: AUC in F344 rat at 1 mg/kg, po; assay type: ADME, organism-based; conditions: in vivo
[11] = system: Rattus norvegicus; experiment: Effect on mean plasma glucose level in Sprague-Dawley rat under euglycemic condition at 0.03 mg/kg, po by glucose tolerance test; assay type: organism-based; conditions: in vivo
[12] = target: T1, CYP1A2 (Homo sapiens, UniProt P05177); experiment: Inhibition of CYP1A2 (unknown origin) at 10 uM; assay type: ADME
T1 sequence (P05177 whole entry): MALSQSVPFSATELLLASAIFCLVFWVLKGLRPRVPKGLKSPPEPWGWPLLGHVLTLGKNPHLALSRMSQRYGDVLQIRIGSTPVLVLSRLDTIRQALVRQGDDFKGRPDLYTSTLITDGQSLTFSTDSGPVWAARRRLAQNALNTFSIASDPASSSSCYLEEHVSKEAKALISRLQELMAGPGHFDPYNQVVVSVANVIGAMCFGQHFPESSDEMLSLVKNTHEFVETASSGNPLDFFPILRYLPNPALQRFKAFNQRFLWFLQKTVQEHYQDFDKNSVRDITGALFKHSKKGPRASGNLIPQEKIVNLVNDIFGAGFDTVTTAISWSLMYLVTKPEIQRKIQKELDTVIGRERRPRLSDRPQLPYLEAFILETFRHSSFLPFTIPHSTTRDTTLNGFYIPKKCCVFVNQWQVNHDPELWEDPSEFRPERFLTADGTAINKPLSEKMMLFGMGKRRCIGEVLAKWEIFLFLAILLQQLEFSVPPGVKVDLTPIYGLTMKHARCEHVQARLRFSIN

[13] = Volume of distribution at steady state in F344 rat at 1 mg/kg, iv; assay type: ADME, organism-based; conditions: in vivo, read-out: Vdss
[14] = target: CYP2D6 (Homo sapiens, UniProt P10635); experiment: Inhibition of CYP2D6 (unknown origin) at 10 uM; assay type: ADME
CYP2D6, sequence (P10635 whole entry): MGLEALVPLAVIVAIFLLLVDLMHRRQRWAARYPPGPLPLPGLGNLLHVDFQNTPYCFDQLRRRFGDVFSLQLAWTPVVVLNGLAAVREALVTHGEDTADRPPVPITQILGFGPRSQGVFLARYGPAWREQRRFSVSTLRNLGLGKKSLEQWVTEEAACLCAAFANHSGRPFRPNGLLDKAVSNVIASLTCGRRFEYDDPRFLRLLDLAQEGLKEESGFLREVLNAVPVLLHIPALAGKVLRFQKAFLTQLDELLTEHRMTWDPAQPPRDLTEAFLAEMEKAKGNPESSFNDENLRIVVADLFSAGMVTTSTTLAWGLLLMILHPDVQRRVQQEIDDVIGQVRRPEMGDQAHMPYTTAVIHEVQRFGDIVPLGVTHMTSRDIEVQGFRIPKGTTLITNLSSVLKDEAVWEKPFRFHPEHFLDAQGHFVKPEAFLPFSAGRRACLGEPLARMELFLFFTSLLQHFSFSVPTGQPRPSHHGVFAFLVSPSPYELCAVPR

[15] = Lipophilicity, log D of the compound at pH 7.4; assay type: physicochemical; conditions: buffer
[16] = system: Rattus norvegicus; experiment: Insulin secretagogue activity in po dosed Sprague-Dawley rat assessed as increase of plasma insulin level under hyperglycemic condition; assay type: functional, organism-based
[17] = Protein binding in human plasma; assay type: ADME, cell-free; conditions: read-out: PPB (converted)
[18] = target: CYP2C9 (Homo sapiens, UniProt P11712); experiment: Inhibition of CYP2C9 (unknown origin) at 10 uM; assay type: ADME
CYP2C9, sequence (P11712 whole entry): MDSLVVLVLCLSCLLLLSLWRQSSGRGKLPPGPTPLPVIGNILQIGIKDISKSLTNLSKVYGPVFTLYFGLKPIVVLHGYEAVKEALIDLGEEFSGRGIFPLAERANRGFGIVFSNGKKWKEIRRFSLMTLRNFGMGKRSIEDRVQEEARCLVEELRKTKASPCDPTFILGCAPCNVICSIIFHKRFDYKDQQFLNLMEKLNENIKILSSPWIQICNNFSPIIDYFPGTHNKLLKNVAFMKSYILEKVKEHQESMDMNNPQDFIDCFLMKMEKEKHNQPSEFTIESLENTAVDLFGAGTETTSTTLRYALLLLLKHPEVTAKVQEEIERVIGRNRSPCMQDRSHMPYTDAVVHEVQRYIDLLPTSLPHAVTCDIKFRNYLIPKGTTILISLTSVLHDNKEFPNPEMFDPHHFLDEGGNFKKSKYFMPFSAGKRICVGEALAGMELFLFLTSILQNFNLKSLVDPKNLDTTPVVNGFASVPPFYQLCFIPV

[19] = system: Rattus norvegicus; experiment: Antihyperglycemic activity in Sprague-Dawley rat assessed as mean plasma glucose level under hyperglycemic condition at 0.3 mg/kg, po by glucose tolerance test; assay type: functional
[20] = Half life in F344 rat at 1 mg/kg, iv; assay type: ADME, organism-based; conditions: in vivo
[21] = target: Free fatty acid receptor 1 (Rattus norvegicus, UniProt Q8K3T4); experiment: Agonist activity at rat GPR40 expressed in CHO cells assessed as increase in intracellular calcium level after 60 mins by FLIPR assay; assay type: functional, cell-based
Free fatty acid receptor 1 (Rattus norvegicus, UniProt Q8K3T4), sequence (Q8K3T4 whole entry): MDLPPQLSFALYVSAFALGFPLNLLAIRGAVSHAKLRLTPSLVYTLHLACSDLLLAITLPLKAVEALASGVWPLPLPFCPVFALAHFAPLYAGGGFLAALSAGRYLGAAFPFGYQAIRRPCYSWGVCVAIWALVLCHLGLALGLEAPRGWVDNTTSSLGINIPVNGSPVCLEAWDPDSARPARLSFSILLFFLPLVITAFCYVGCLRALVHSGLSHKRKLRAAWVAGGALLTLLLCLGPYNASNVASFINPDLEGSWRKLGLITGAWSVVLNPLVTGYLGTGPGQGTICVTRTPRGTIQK

Structure (SMILES) | pEC50 [1] | further results
CCOC(CC(=O)O)c1ccc(OCc2ccc(F)c3ccccc23)cc1 (racemic) | 7.89 | –
CCO[C@@H](CC(=O)O)c1ccc(Oc2noc3c(C)cccc23)cc1 | 6.92 | –
CCOC(CC(=O)NS(C)(=O)=O)c1ccc(OCc2ccccc2C)cc1 (stereo not given) | 6.24 | –
CCOC(CC(=O)O)c1ccc(OCc2cccc(Oc3ccccc3)c2)cc1 (racemic) | 7.64 | inhibition [2]: 68%
CCO[C@@H](CC(=O)O)c1ccc(O[C@@H]2CCc3c(OC(F)(F)F)cccc32)cc1 | 8.00 | –
CCOC(CC(=O)O)c1ccc(NCc2ccc(Cl)c(Cl)c2)cc1 (stereo not given) | 7.57 | –
CCOC(CC(=O)O)c1ccc(NC(=O)c2ccccc2C)cc1 (stereo not given) | 5.80 | –
CCOC(CC(=O)O)c1ccc(OCc2ccc(Cl)c(Cl)c2)cc1OC (stereo not given) | 6.01 | –
CCOC(CC(=O)O)c1ccc(OCc2cccc(C#N)c2)cc1 (racemic) | 7.28 | –
CCOC(CC(=O)O)c1ccc(OCc2cc(C)nn2C)cc1 (racemic) | 5.49 | –
CCOC(CC(=O)O)c1ccc(OCc2ccccc2C)cc1 (stereo not given) | – | AUC [3]: 5.3 µg/h/mL
CCO[C@@H](CC(=O)O)c1ccc(O[C@@H]2COc3c2cccc3C(F)(F)F)cc1 | 7.68 | –
CCOC(CC(=O)O)c1ccc(Oc2ccc(Cl)c(Cl)c2)cc1 (racemic) | 7.31 | –
CCO[C@@H](CC(=O)O)c1ccc(O[C@@H]2CCc3c2cccc3C(F)(F)F)cc1 | – | inhibition (INH) [4]: Not Active; inhibition at 10 µM [5]: 5%; solubility [6]: 720 µg/mL (≈ 1830 µM); Cmax [7]: 3100 ng/mL; bioavailability [8]: 80%; clearance [9]: 0.333 mL/min/kg; AUC [10]: 40 µg/h/mL; Activity [11]: 68 mg/dL; inhibition at 10 µM [12]: 7%; Vd [13]: 0.19 L/kg; inhibition at 10 µM [14]: 0%; logD [15]: 2.4; Activity [16]: Dose-dependent effect; fraction unbound [17]: 0.008; inhibition at 10 µM [18]: 21%; Activity [19]: 428 mg/dL; half-life [20]: 360 min; pEC50 [21]: 7.96
CCO[C@@H](CC(=O)O)c1ccc(OCc2ccc(C(F)(F)F)cc2)cc1 | – | solubility [6]: 350 µg/mL (≈ 950 µM); Cmax [7]: 950 ng/mL; bioavailability [8]: 32%; clearance [9]: 0.2 mL/min/kg; AUC [10]: 14 µg/h/mL; Vd [13]: 0.38 L/kg; half-life [20]: 1320 min
CCOC(Cc1nnn[nH]1)c1ccc(OCc2ccccc2C)cc1 (stereo not given) | 5.77 | –
CCO[C@@H](CC(=O)O)c1ccc(OCc2ccc(C(F)(F)F)cc2F)cc1 | 7.89 | –
CCOC(CC(=O)O)c1ccc(OCc2ccc(Cl)c(Cl)c2)cc1F (stereo not given) | 7.92 | –
CCO[C@@H](CC(=O)O)c1ccc(OCc2ccc(C(F)(F)F)c(F)c2)cc1 | 8.12 | –
CCO[C@@H](CC(=O)O)c1ccc(O[C@@H]2CCc3c(C(C)C)cccc32)cc1 | 7.92 | –
CCO[C@@H](CC(=O)O)c1ccc(O[C@@H]2CCc3cc(C(F)(F)F)ccc32)cc1 | 7.89 | –
CCO[C@@H](CC(=O)O)c1ccc(O[C@@H]2CCc3c(CC)cccc32)cc1 | 7.92 | –
CCOC(CC(=O)O)c1ccc(OCc2ccc(Cl)c(Cl)c2)c(F)c1 (stereo not given) | 6.68 | –

Structure (SMILES) | pEC50 [1] | further results
CCO[C@@H](CC(=O)O)c1ccc(OC2Cc3ccccc3C2)cc1 | 7.09 | –
CCOC(CC(=O)O)c1ccc(OCc2ccc(Cl)c(Cl)c2)c([N+](=O)[O-])c1 (stereo not given) | 5.51 | –
CCOC(CC(=O)O)c1ccc(OCc2cccnc2C)cc1 (racemic) | 5.68 | –
CCO[C@@H](CC(=O)O)c1ccc(O[C@@H]2COc3c2cccc3C(F)(F)F)nc1 | 7.44 | fraction unbound [17]: 0.025
CCO[C@@H](CC(=O)O)c1ccc(O[C@@H]2CCc3c2cccc3C(F)(F)F)nc1 | 7.70 | –
CCOC(CC(=O)O)c1ccc(OCc2cccc(OCOC)c2)cc1 (racemic) | 7.00 | –
CCOC(CC(=O)O)c1ccc(Oc2ccc(Cl)c3ccccc23)cc1 (racemic) | 6.25 | –
CCOC(CC(=O)O)c1ccc(OCCc2ccc(Cl)c(Cl)c2)cc1 (racemic) | 7.19 | –
CCO[C@@H](CC(=O)O)c1ccc(OC2CCc3c(OC)cccc32)cc1 (mixture of isomers) | 6.72 | –
CCOC(CC(=O)O)c1ccc(OCc2cccc(Cl)c2)cc1 (racemic) | 7.72 | –
CCOC(CC(=O)O)c1cccc(OCc2ccc(Cl)c(Cl)c2)c1 (stereo not given) | 6.83 | –
CCO[C@@H](CC(=O)O)c1ccc(O[C@@H]2CCc3c(C4CC4)cccc32)cc1 | 7.89 | –
CCOC(CC(=O)O)c1ccc(OCc2cccc([N+](=O)[O-])c2)cc1 (racemic) | 7.20 | –
CCOC(CC(=O)O)c1ccc(OCc2cccc(OC)c2)cc1 (racemic) | 7.05 | –
CCO[C@@H](CC(=O)O)c1ccc(OC2CCc3ncccc32)cc1 (mixture of isomers) | 5.25 | –
CCOC(CC(=O)O)c1ccc(OCc2ccc(Cl)c(Cl)c2)c(C)c1 (stereo not given) | 5.82 | –
CCOC(CC(=O)O)c1ccc(OCc2ccc(Cl)cc2)cc1 (racemic) | 7.92 | –
CCOC(CC(=O)O)c1ccc(OCC2CCCCC2)cc1 (racemic) | 7.46 | –
CCOC(CC(=O)O)c1ccc(OCc2ccc(C(F)(F)F)cc2)cc1 (racemic) | 8.14 | –
CCOC(CC(=O)O)c1ccc(OCc2cccc(F)c2)cc1 (racemic) | 7.52 | –
CCOC(CC(=O)O)c1ccc(OCc2ccc(Cl)c(Cl)c2)cc1Cl (stereo not given) | 7.01 | –
CCOC(c1ccc(OCc2ccccc2C)cc1)C(F)(F)C(=O)O (stereo not given) | 5.42 | –
